Test: Diffusion of infused low molecular weight contrast agents in NativeSkin and FlowSkin models (surface colour intensity)
Format: in vitro ADME
Conditions: infused at 0.5 mg/mL, first hours of infusion; FLOWSKIN (with hypodermis) compared with NATIVESKIN (without)
Method: In order to characterize diffusion during the first hours of infusion in the NativeSkin° and in the FlowSkin®model, two low molecular weight contrast agents (KI: potassium Iodide, […]) and V patent blur (E131, 1 kDa) at 0.5 mg/mL have been infused in both models.
The result was similar with V patent blue (E131). Accordingly, it seems that the hypoderm facilitate the diffusion of low molecular weight agent within the FLOWSKIN® model.

## [I-].[K+] [KI, potassium Iodide]
  color intensity visible at the surface of the FLOWSKIN model versus the NATIVESKIN model: growing faster

From patent US20230304996A1, “MICROFLUIDIC SYSTEM TO CONTROL PERFUSION, DIFFUSION AND COLLECTION OF MOLECULES OVER LONG PERIODS IN AN EX-VIVO SKIN MODEL” (GENOSKIN, priority 2020, published 2023)
